Measurements published in PubChem BioAssay (NCI).
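Each compound was tested at five concentrations against cells in 96-well plates for 48 hours. The concentration for 50% growth inhibition is given as GI50. TGI is the concentration that stops growth completely.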

Legend:
Assay in all cases: growth of human tumour cells (NCI), 48 h
UACC-257 melanoma = system: UACC-257 melanoma
NCI-H23 lung = system: NCI-H23 lung
NCI-H460 lung = system: NCI-H460 lung
TK-10 renal = system: TK-10 renal
MDA-MB-435 = system: MDA-MB-435
HCT-15 colon = system: HCT-15 colon

Compound | TGI (UACC-257 melanoma) [µM] | TGI (NCI-H23 lung) [µM] | TGI (NCI-H460 lung) [µM] | TGI (TK-10 renal) [µM] | TGI (MDA-MB-435) [µM] | TGI (HCT-15 colon) [µM] | GI50 (MDA-MB-435) [µM]
O=c1[nH]nc(-c2ccccc2)n1-n1cnnc1 | > 100 | > 100 | > 100 | > 100 | > 100 | > 100 | 
CCCCCCCCCCCCOP(=O)(O)OP(=O)(O)OCC1OC(n2cc(C)c(=O)[nH]c2=O)CC1O (stereo not drawn) | > 100 | > 100 | > 100 | > 100 | > 100 | > 100 | 
O=C1c2cc([N+](=O)[O-])sc2C(=O)c2c([N+](=O)[O-])csc21 | 1.31 | 2.05 | 3.5 | 3 | 0.311 | 4.41 | 
C[C@H](CCC(=O)NCC(=O)O)[C@H]1CC[C@H]2[C@@H]3[C@H](O)C[C@@H]4C[C@H](O)CC[C@]4(C)[C@H]3CC[C@]12C | > 100 | > 100 | > 100 | > 100 | > 100 | > 100 | 
COC(=O)c1ccc(NCC2=C(Br)C(=O)C=CC2=O)cc1Cl | 72.2 | 45.8 | 32.2 | 30.9 | 38.1 | 29.2 | 
CN(C)/C=C/C=C(/C=N/S(=O)(=O)C(F)(F)F)C1C=CN(S(=O)(=O)C(F)(F)F)C=C1 | 77.7 | 56.6 | > 100 | > 100 | 73.5 | 57.8 | 
CCOc1cc2c(cc1O)C(N)C[C@@H]1[C@@H]2CC[C@]2(C)[C@@H](O)CC[C@@H]12 (stereo partly drawn) | > 100 | > 100 | > 100 | > 100 | 52.4 | > 100 | 16.2
Cc1ccc(S(=O)(=O)Nn2c(O)c(C#N)c(-c3ccc([N+](=O)[O-])cc3)c(C#N)c2=O)cc1 | > 100 |  | > 100 | > 100 | > 100 | > 100 | 
Clc1cc2nnn(C3CCCO3)c2cc1Cl (stereo not drawn) | > 100 | > 100 | > 100 | > 100 | > 100 | > 100 | 
Cc1cc(=O)oc2c(CNC(CC(C)C)C(=O)O)c(O)ccc12 (stereo not drawn) | > 100 | > 100 | > 100 | > 100 | > 100 | > 100 | 
CC(C)C(NC(=O)C(Cc1ccccc1)NC(=O)[C@H]1CCC[C@H]1NC(=O)C(Cc1ccc(OC(C)(C)C)cc1)NC(=O)OC(C)(C)C)C(N)=O (stereo partly drawn) |  | 35.7 | 38.8 | 72 | 34.3 | > 100 | 
Cc1ccc(NC(=O)CC(=O)n2nc(C)c(N=Nc3cccc(C)c3)c2C)cc1 | > 100 | > 100 | > 100 | > 100 | > 100 | > 100 | 
COC1CC(OC2C(C)OC(OC3C(C)OC(OC4C(C)OC(O[C@H]5CC[C@@]6(C)C(=CC[C@]7(O)[C@@H]6C[C@@H](O)[C@@]6(C)[C@]7(O)CC[C@@]6(O)C(C)=O)C5)CC4OC)CC3OC)CC2OC)OC(C)C1O (stereo partly drawn) | > 12.5 | > 12.5 |  | > 12.5 | > 12.5 | > 12.5 | 
O=[N+]([O-])/C(C(Cl)=C(Cl)Cl)=C(/Nc1ccccc1)Sc1ccccc1 | 35.6 | 36.2 | 41.6 | 59.8 | 33.9 | 41.6 | 
Cc1ccc2c(c1C)C(=O)/C(=C/c1cccc(C)c1C(=O)O)C2 | > 100 | > 100 | > 100 | > 100 | > 100 | > 100 | 
O=C1N(c2ccccc2)C(=S)/C(=C/c2ccc(Cl)cc2)N1c1ccc(Cl)cc1 | > 100 | > 100 | > 100 | 89.8 | > 100 | > 100 | 
O=C1C=C(N2CCN(CCOCCO)CC2)C(=O)c2c(O)ccc(O)c21 | 3.11 | 4.67 | 21.4 | 22.7 | 3.33 | 9.55 | 
CC/C(N)=N\NC(=O)OC(C)(C)C | > 100 | > 100 |  | > 100 | > 100 | > 100 | 
CC(=O)NC1C(OCc2ccccc2)OC(CO)C(O)C1OCC(=O)N[C@@H](C)C(=O)N[C@H](CCC(=O)NCCCNc1ccc([N+](=O)[O-])c2[nH]c3ccccc3c(=O)c12)C(N)=O (stereo partly drawn) | > 100 | > 100 | > 100 | > 100 | > 100 | > 100 | 
CCOC(=O)c1cc(Br)c(-c2cc(C)co2)[nH]1 | > 100 | > 100 | > 100 |  | > 100 | > 100 | 
Cc1ccccc1NC(=O)Cc1csc(N=Nc2c(O)[nH]c3ccccc23)n1 | > 100 | > 100 | > 100 | > 100 | > 1 | > 100 | 
CN(C)CCCNC(=O)c1cn2c(ccc3sc4ccccc4c(=O)c32)n1 | 30.3 | 28.4 | 2.73 | 30.9 | 30.4 | 10.7 | 
CN1CCC2(CC1)C(=NC1CCCCC1)NC(=O)N2c1ccccc1 | > 100 | > 100 | > 100 | > 100 |  | > 100 | 
CCCCC[C@H]1CCCCCCCCCC(=O)OC2C(O[C@@H]3OC(C)[C@H](OC(=O)[C@@H](C)CC)C(O[C@@H]4OC(C)[C@H](O)C(O)[C@@H]4O)[C@@H]3OC(=O)[C@H](C)CC)[C@H](OC3C(O)[C@@H](O)C(C)O[C@H]3O1)OC(CO)[C@H]2O (stereo partly drawn) | 29.2 | 34 | 32.5 | 34.3 |  | 30.6 | 
NN/C(=N\S(=O)(=O)c1ccc(S(=O)(=O)c2ccccc2)s1)Nc1ccc(Cl)cc1 | 67.5 | 80 | 65.7 | > 100 |  | > 100 | 
O=[N+]([O-])C(C=C(n1nnc2ccccc21)n1nnc2ccccc21)=C(n1nnc2ccccc21)n1nnc2ccccc21 |  | > 100 | > 100 | > 100 | > 100 | > 100 | 
O=C(Nc1ccc(Cl)cc1)c1cc(S(=O)(=O)Nc2n[nH]c(=O)n2-c2ccccc2)c(S)cc1Cl | > 100 | > 100 | > 100 |  | > 100 | > 100 | 
CCOC(=O)C(C/C=C/CO)N(C)C(=O)OC(C)(C)C (stereo not drawn) | > 100 | > 100 | > 100 | > 100 |  | > 100 | 
